≈ marks a conversion by molar mass, not a printed value. One block for each compound: values may come before it.
Assay: physchem
Excerpt: Determination of the small molecule content in a complex plant matrix depends on the understanding of minimum solubility in the chosen extraction solvent. […] Often, tests on mixture are hardly reproducible on pure compounds if this aspect is not routinely considered in the workflow. We performed a general testing of best solvent systems to compare a wide range of small molecules of interest to understand the limitations of general approaches within a complex plant matrix such as Nicotiana.
For each of the 29 reference compounds, 2 mg was weighed into a 15 mL glass tube and dissolved in the minimum amount of the test solvent by gradually adding the solvent with a micropipette until complete dissolution or to a final volume of 10.0 mL. Seven solvents with polarities from nonpolar to polar were chosen for the test: hexane (C6H14), CH2Cl2, CH2Cl2/MeOH (4:1, v/v), EtOH, MeOH, MeOH/H2O (7:3, v/v), and H2O. The consumed solvents and their volumes were recorded for each reference compound.

[1] = 22 °C, organic solvent or mixture, thermodynamic from solid, Solubility in CH2Cl2
[2] = 22 °C, organic solvent or mixture, thermodynamic from solid, Solubility in EtOH
[3] = 22 °C, organic solvent or mixture, thermodynamic from solid, Solubility in MeOH/H2O (7:3)
[4] = hexane (C6H14), 22 °C, organic solvent or mixture, thermodynamic from solid, Solubility in C6H14, solvent hexane (C6H14); room temperature (21–23 °C); 2 mg compound, solvent added until dissolution or 10.0 mL
[5] = methanol, 22 °C, organic solvent or mixture, thermodynamic from solid, Solubility in MeOH, solvent methanol; room temperature (21–23 °C)
[6] = water, 22 °C, thermodynamic from solid, Solubility in H2O, solvent water; room temperature (21–23 °C)
[7] = 22 °C, organic solvent or mixture, thermodynamic from solid, Solubility in C6H14, solvent hexane (C6H14); room temperature (21–23 °C); 2 mg compound, solvent added until dissolution or 10.0 mL
[8] = 22 °C, organic solvent or mixture, thermodynamic from solid, Solubility in CH2Cl2, solvent dichloromethane (CH2Cl2); room temperature (21–23 °C)
[9] = 22 °C, organic solvent or mixture, thermodynamic from solid, Solubility in CH2Cl2/MeOH (4:1), solvent CH2Cl2/MeOH (4:1, v/v); room temperature (21–23 °C)
[10] = 22 °C, organic solvent or mixture, thermodynamic from solid, Solubility in EtOH, solvent ethanol; room temperature (21–23 °C)
[11] = 22 °C, organic solvent or mixture, thermodynamic from solid, Solubility in MeOH, solvent methanol; room temperature (21–23 °C)
[12] = 22 °C, organic solvent or mixture, thermodynamic from solid, Solubility in MeOH/H2O (7:3), solvent MeOH/H2O (7:3, v/v); room temperature (21–23 °C)
[13] = 22 °C, water, thermodynamic from solid, Solubility in H2O, solvent water; room temperature (21–23 °C)
[14] = MeOH/H2O (7:3, v/v), 22 °C, organic solvent or mixture, thermodynamic from solid, Solubility in MeOH/H2O (7:3), solvent MeOH/H2O (7:3, v/v); room temperature (21–23 °C)
[15] = dichloromethane (CH2Cl2), 22 °C, organic solvent or mixture, thermodynamic from solid, Solubility in CH2Cl2, solvent dichloromethane (CH2Cl2); room temperature (21–23 °C)
[16] = ethanol, 22 °C, organic solvent or mixture, thermodynamic from solid, Solubility in EtOH, solvent ethanol; room temperature (21–23 °C)
[17] = solvent CH2Cl2/MeOH (4:1, v/v); room temperature (21–23 °C)
[18] = solvent MeOH/H2O (7:3, v/v); room temperature (21–23 °C)
[19] = solvent dichloromethane (CH2Cl2); room temperature (21–23 °C)
[20] = solvent ethanol; room temperature (21–23 °C)
[21] = solvent hexane (C6H14); room temperature (21–23 °C); 2 mg compound, solvent added until dissolution or 10.0 mL
[22] = solvent methanol; room temperature (21–23 °C)
[23] = solvent water; room temperature (21–23 °C)
[24] = 22 °C, organic solvent or mixture, thermodynamic from solid, Solubility in C6H14
[25] = 22 °C, organic solvent or mixture, thermodynamic from solid, Solubility in MeOH
[26] = 22 °C, water, thermodynamic from solid, Solubility in H2O

Compound: O=C(O)c1cccnc1 [Nicotinic acid]
solubility [1]: < 190 µg/mL
solubility [2]: 3510 µg/mL (≈ 28.5 mM)
solubility [3]: 2850 µg/mL (≈ 23.1 mM)
solubility [4]: < 190 µg/mL
solubility [5]: 6710 µg/mL (≈ 54.5 mM)
solubility [6]: 3100 µg/mL (≈ 25.2 mM)

Compound: c1cncc([C@@H]2CCCN2)c1 [Nornicotine]
solubility [7]: 358000 µg/mL (≈ 2420 mM)
solubility [8]: 422000 µg/mL (≈ 2850 mM)
solubility [9]: 412000 µg/mL (≈ 2780 mM)
solubility [10]: 396000 µg/mL (≈ 2670 mM)
solubility [11]: 428000 µg/mL (≈ 2890 mM)
solubility [12]: 418000 µg/mL (≈ 2820 mM)
solubility [13]: 416000 µg/mL (≈ 2810 mM)

Compound: C[C@@H]1O[C@@H](OC[C@H]2O[C@@H](Oc3c(-c4ccc(O)c(O)c4)oc4cc(O)cc(O)c4c3=O)[C@H](O)[C@@H](O)[C@@H]2O)[C@H](O)[C@H](O)[C@H]1O [Rutin]
solubility [14]: 520 µg/mL (≈ 0.852 mM)
solubility [15]: < 190 µg/mL
solubility [16]: 6670 µg/mL (≈ 10.9 mM)
solubility [4]: < 190 µg/mL
solubility [5]: 49000 µg/mL (≈ 80.3 mM)
Solubility in CH2Cl2/MeOH (4:1) [17]: 3820 µg/mL (≈ 6.26 mM)
Solubility in CH2Cl2/MeOH (4:1) (solvent CH2Cl2/MeOH (4:1, v/v); room temperature (21–23 °C); listed as rutin): < 100000 µg/mL
solubility [6]: < 190 µg/mL

solubility (CH2Cl2/MeOH (4:1, v/v), 22 °C, organic solvent or mixture, thermodynamic from solid, Solubility in CH2Cl2/MeOH (4:1), solvent CH2Cl2/MeOH (4:1, v/v); room temperature (21–23 °C)): 219000 µg/mL (≈ 710 mM)
solubility [14]: 3170 µg/mL (≈ 10.3 mM)
solubility [15]: 58000 µg/mL (≈ 188 mM)
solubility [16]: 75700 µg/mL (≈ 245 mM)
solubility [4]: 3760 µg/mL (≈ 12.2 mM)
solubility [5]: 65700 µg/mL (≈ 213 mM)
solubility [6]: < 190 µg/mL
Compound: C=C[C@](C)(O)CC[C@@H]1[C@@]2(C)CCCC(C)(C)[C@@H]2CC[C@@]1(C)O [Sclareol]

Compound: CC(C)=CCC/C(C)=C/CC/C(C)=C/CC/C(C)=C/CC/C(C)=C/CC/C(C)=C/CC/C(C)=C/CC/C(C)=C/CC/C(C)=C/CO [Solanesol]
Solubility in CH2Cl2/MeOH (4:1) [17]: 203000 µg/mL (≈ 322 mM)
Solubility in MeOH/H2O (7:3) [18]: NS (not soluble, insoluble in the solvent at the tested concentration range (0.19–558 mg/mL))
Solubility in CH2Cl2 [19]: 235000 µg/mL (≈ 372 mM)
Solubility in EtOH [20]: 3310 µg/mL (≈ 5.24 mM)
Solubility in C6H14 [21]: 42000 µg/mL (≈ 66.6 mM)
Solubility in MeOH [22]: 510 µg/mL (≈ 0.808 mM)
Solubility in H2O [23]: NS (not soluble, insoluble in the solvent at the tested concentration range (0.19–558 mg/mL))

Compound: CC(C)=CCC/C(C)=C/CC/C(C)=C/CC/C=C(\C)CC/C=C(\C)CCC=C(C)C [Squalene]
solubility [7]: 446000 µg/mL (≈ 1090 mM)
solubility [8]: 474000 µg/mL (≈ 1150 mM)
solubility [9]: 472000 µg/mL (≈ 1150 mM)
solubility [10]: 5940 µg/mL (≈ 14.5 mM)
solubility [11]: 220 µg/mL (≈ 0.536 mM)
solubility [12]: < 190 µg/mL
solubility [13]: < 190 µg/mL

solubility [24]: 104000 µg/mL (≈ 270 mM)
solubility [1]: 100000 µg/mL (≈ 260 mM)
solubility (22 °C, organic solvent or mixture, thermodynamic from solid, Solubility in CH2Cl2/MeOH (4:1)): 212000 µg/mL (≈ 551 mM)
solubility [2]: 74300 µg/mL (≈ 193 mM)
solubility [25]: 113000 µg/mL (≈ 294 mM)
solubility [3]: < 190 µg/mL
solubility [26]: < 190 µg/mL
Compound: C=C1CC[C@H](O)C/C1=C/C=C1\CCC[C@]2(C)[C@@H]([C@H](C)CCCC(C)C)CC[C@@H]12 [Vitamin D3]

solubility [24]: < 190 µg/mL
solubility [1]: < 190 µg/mL
solubility [2]: 560 µg/mL (≈ 2.55 mM)
solubility [25]: 2280 µg/mL (≈ 10.4 mM)
solubility [3]: 3030 µg/mL (≈ 13.8 mM)
solubility [26]: < 190 µg/mL
Compound: C/C(=C\CNc1ncnc2[nH]cnc12)CO [Zeatin]

Compound: CC1=C(/C=C/C(C)=C/C=C/C(C)=C/C=C/C=C(C)/C=C/C=C(C)/C=C/C2=C(C)C[C@@H](O)CC2(C)C)C(C)(C)C[C@H](O)C1 [Zeaxanthin]
solubility [7]: < 190 µg/mL
solubility [8]: 290 µg/mL (≈ 0.51 mM)
solubility [10]: < 190 µg/mL
solubility [11]: < 190 µg/mL
solubility [12]: < 190 µg/mL
solubility [13]: < 190 µg/mL
Solubility in CH2Cl2/MeOH (4:1) [17]: 490 µg/mL (≈ 0.861 mM)
Solubility in CH2Cl2/MeOH (4:1) (solvent CH2Cl2/MeOH (4:1, v/v); room temperature (21–23 °C); listed as zeaxanthin): < 100000 µg/mL

Compound: Megastigmatrienone
Solubility in CH2Cl2/MeOH (4:1) [17]: 212000 µg/mL
Solubility in MeOH/H2O (7:3) [18]: 38800 µg/mL
Solubility in CH2Cl2 [19]: 215000 µg/mL
Solubility in EtOH [20]: 197000 µg/mL
Solubility in C6H14 [21]: 1100 µg/mL
Solubility in MeOH [22]: 228000 µg/mL
Solubility in H2O [23]: NS (not soluble, insoluble in the solvent at the tested concentration range (0.19–558 mg/mL))

Compound: Phytol
Solubility in MeOH/H2O (7:3) [18]: 320 µg/mL
Solubility in H2O [23]: NS (not soluble, insoluble in the solvent at the tested concentration range (0.19–558 mg/mL))

— publication PMC9694777, “Fractionation and Extraction Optimization of Potentially Valuable Compounds and Their Profiling in Six Varieties of Two Nicotiana Species” (Molecules, 2022)
